According to patent publication US6596863B2, “Medical composition containing nitroetheneamine Derivative or salt there of as active constituent” (Ishihara Sangyo Kaisha, Ltd., priority 1998, dated 2003):

Assays:
human MMP-3 = biological target: T1, human MMP-3 (Homo sapiens, UniProt P08254); assay: Enzyme inhibition activity against MMP-3 (stromelysin-1), fluorescent peptide substrate NFF-3; assay type: biochemical; conditions: human MMP-3, substrate NFF-3, 37° C. for 2 hours
T1 construct: purchased Kabushiki Kaisha Yagai Chuo Kenkyusho YU-26003
Description: The inhibition activity against human MMP-3 was measured using a fluorescent peptide substrate MOCAc-Arg-Pro-Lys-Pro-Val-Glu-Nva-Trp—Arg-Lys(Dnp)-NH2[NFF-3, manufactured by Peptide Institute, Inc. (No. 3168-v)] with reference to the method disclosed in a literature (Knight C. G. et al, FEBS Letters, Vol. 296, 263-266, 1992, Nagase H. et al, Journal of Biological Chemistry, Vol. 269, 20952-20957, 1994). Namely, into each well of a Fluoro Nunc plate (96C) white (No. 437842, manufactured by Nunc Co.), 180 μl of a MMP-3 solution (0.0125 unit/ml; No. YU-26003, manufactured by Kabushiki Kaisha Yagai Chuo Kenkyusho, purity: at least 99%), 10 μl of a test materials (the compound of the present invention) dissolved in DMSO and 10 μl of a peptide substrate […] (final concentration: 10 μM) were added and maintained at 37° C. for 2 hours in a dark place. Dilution of the enzyme was carried out by using 50 mM of Tris-HCl (pH 7.5) comprising 0.1M of NaCl, 10 mM of CaCl2, 0.05% Brij 35 and 0.02% of NaN3.
For the MMP-3 enzymatic activity, the amount of the decomposition product after the reaction was quantitatively analyzed as the change in the relative fluorescence intensity at a fluorescence wavelength of 400 nm with an excitation wavelength of 326 nm (using a variable fluorescence plate reader (variable wavelength type) Spectron FL-2575, manufactured by Towa Kagaku K. K.), and the inhibition activity of the test materials against the enzymatic activity was calculated by comparing the relative fluorescence intensities of the inhibitor added group and the non-added group after completion of the reaction.

human MMP-7 = biological target: T2, human MMP-7 (Homo sapiens, UniProt P09237); assay: Enzyme inhibition activity against MMP-7 (matrilysin), fluorescent peptide substrate NFF-2; assay type: biochemical; conditions: human MMP-7, substrate NFF-2, 37° C. for 2.5 hours
T2 construct: purchased Kabushiki Kaisha Yagai Chuo Kenkyusho YU-31001
T2 sequence (P09237 95-267): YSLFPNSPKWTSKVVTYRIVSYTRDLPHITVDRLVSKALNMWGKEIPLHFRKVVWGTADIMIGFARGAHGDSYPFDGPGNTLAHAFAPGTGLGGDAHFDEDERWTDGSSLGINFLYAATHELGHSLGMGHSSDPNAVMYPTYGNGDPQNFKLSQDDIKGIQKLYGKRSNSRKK
Description: The inhibition activity against human MMP-7 was measured by the same method as the method for MMP-3, by using a MMP-7 solution (0.025 unit/ml; No. YU-31001, manufactured by Kabushiki Kaisha Yagai Chuo Kenkyusho, purity: at least 99.9%) and a fluorescent peptide substrate MOCAc—Arg-Pro-Lys-Pro-Tyr—Ala-Nva-Trp-Met-Lys(Dnp) -NH2 [NFF-2, No. 3167-v, manufactured by Peptide Institute, Inc.]. The enzymatic reaction was carried out at 37° C. for 2.5 hours in a dark place, and the relative fluorescence intensity was measured at a fluorescence wavelength of 400 nm with an excitation wavelength of 327 nm.

T1 sequence (P08254 100-477): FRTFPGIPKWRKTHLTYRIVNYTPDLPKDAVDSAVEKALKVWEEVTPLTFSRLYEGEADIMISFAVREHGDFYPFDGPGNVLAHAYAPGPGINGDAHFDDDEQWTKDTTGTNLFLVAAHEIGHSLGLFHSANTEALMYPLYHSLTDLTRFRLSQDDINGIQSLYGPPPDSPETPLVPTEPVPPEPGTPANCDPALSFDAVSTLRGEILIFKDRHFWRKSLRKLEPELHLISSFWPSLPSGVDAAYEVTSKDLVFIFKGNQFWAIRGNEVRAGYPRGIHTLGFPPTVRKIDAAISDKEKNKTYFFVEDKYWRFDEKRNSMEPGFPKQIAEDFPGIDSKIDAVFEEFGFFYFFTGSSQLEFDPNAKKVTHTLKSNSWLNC

| Compound | IC50 (human MMP-3) | IC50 (human MMP-7) |
| --- | --- | --- |
| CS(=O)(=O)NC(=C[N+](=O)[O-])NNc1cc(C(F)(F)F)cc(Cl)n1 [Compound No. 157, N-(1-(6-chloro-4-trifluoromethyl-2-pyridyl)hydrazino-2-nitroethenyl)methanesulfonamide] | 24.2 µM | 16.5 µM |
| CCOCCOc1cc(C(F)(F)F)cc(NNC(=C[N+](=O)[O-])NC)n1 [Compound No. 107] | 22.3 µM | 18.7 µM |
| CCOCCOc1cc(C(F)(F)F)cc(NNC(=C[N+](=O)[O-])NS(C)(=O)=O)n1 [Compound No. 164, N-(1-(6-(2-ethoxyethoxy)-4-trifluoromethyl-2-pyridyl)hydrazino-2-nitroethenyl)methanesulfonamide] | 17.8 µM | 12 µM |
